{
  "source": "patent US9539298B2",
  "about": "“Lissencephaly therapeutic agent” (OSAKA CITY UNIVERSITY, priority 2010, dated 2017)",
  "key": {"[1]": {"test_system": "Lis1+/− cerebellar granule nerve cells", "experiment": "Migration capability of cerebellar granule nerve cells", "assay_type": "cell-based, mouse", "conditions": "200 μM, 18-24 hours, FIG. 5", "procedure": "Cerebellum tissue fragments of LIS1 gene hetero-deficient and wild-type mice (3-7 days after birth) (10 mice for each group) were crushed by gentle pipetting, and treated with 0.025% trypsin (Gibco, 25200)/0.0013% DNaseI (Sigma, DN-25) at 37° C. for 20 minutes. After centrifugation, a BME culture solution (Gibco, 21010) containing 10% equine blood serum was added for washing, and the reaction was stopped. Thereafter, the reaction liquid was subjected to pipetting by adding a BME culture solution containing 0.0052% DNaseI/10% equine blood serum, and filtered with a cell mesh-strainer (diameter=70 μm; Becton Dickinson). […]\nAfter the incubation, the aggregates were washed with a phosphate buffer (PBS), and immobilized by 4% paraformaldehyde (Wako, 162-16065) (at room temperature, for 15 minutes). […] Thereafter, the aggregates were repeatedly washed well with PBS, and carefully embedded using glycerol (Merck) for fluorescence microscope observation so as to avoid damage.\nAfter careful observation using a confocal laser microscope (TCS-SP5, Leica), the migratory distance (μm) of the nerve cells from the marginal zone of the cerebellum granule cell aggregates was measured for each cell group. […] Further, an average migratory distance (μm) was calculated and expressed as average migratory distance (μm)±standard deviation. […]"}, "[2]": {"test_system": "LIS1 heterozygous newborn mice", "experiment": "LIS1 protein in newborn mouse brains after SNJ-1945 oral administration", "assay_type": "in vivo", "procedure": "A neo(−)129S-Pafah1b1^tm2Awb/J homozygous male mouse lacking neo gene was mated with five homozygous EII-Cre transgenic female mice (FVB/N-Tg (EIIa-cre) C5379Lmgd/J, The Jackson Laboratory) by raising them in the same mouse cage. In total, six sets of mouse cages were prepared for the mating experiment. A newborn was defined at the time of delivery confirmation, which was conducted every morning. SNJ-1945 was dissolved in dimethyl sulfoxide (DMSO) at a concentration of 100 mg/ml, and orally administered using pipettes to the newborn mice in an amount of 200 μg/per gram of body weight.\nTo determine the effect of SNJ-1945 administration, LIS1 proteins of normal newborn mice and LIS1 heterozygous newborn mice (administered with SNJ-1945) were measured. In the SNJ-1945 administration group, the brain tissues were taken at 0 hour (immediately after the administration), 1 hour, 2 hours, 4 hours, 8 hours, 12 hours, 16 hours, 24 hours, 48 hours, and 72 hours after the administration to measure LIS1 protein, so as to determine the effect of SNJ-1945 over time. Six mice for each group were used for the measurement of LIS1 protein (n=6).\nThe newborn mice were killed by cutting off their heads, and the brain tissues thereof were immediately isolated. For the measurement of LIS1 protein amount, the weight of the brains was immediately measured as soon as the brains were removed."}},
  "data": [
    {"smiles": "COCCOCCOC(=O)N[C@@H](CC(C)C)C(=O)N[C@@H](Cc1ccccc1)C(=O)C(=O)NC1CC1", "note": "[compound 17, ((1S)-1-((((1S)-1-Benzyl-2,3-dioxo-3-(cyclopropylamino)propyl)amino)carbonyl)-3-methylbutyl)carbamic acid 5-methoxy-3-oxapentyl ester]", "values": [
      {"measurement": "migration capability of nerve cells", "setting": "[1]", "value": "the recovery of migration capability was observed"},
      {"measurement": "LIS1 protein amount in newborn brain", "setting": "[2]; 200 μg per gram of body weight, oral, FIG. 7", "value": "recovered to substantially the normal level"},
      {"measurement": "duration of the effect on LIS1 protein after a single dose", "setting": "[2]; 200 μg/g oral", "value": "continued for at least three days"}
    ]}
  ]
}
